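Exposure lasted 48 hours, with cells grown in 96-well plates and compounds tested at five concentrations. GI50 is the concentration that inhibits growth by half. At the TGI there is no net growth.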
Legend:
Test in all cases: inhibition of tumour cell growth, NCI panel, 48 h
786-0 renal = test system: 786-0 renal
A498 renal = test system: A498 renal
A549 NSCLC = test system: A549 NSCLC
ACHN renal = test system: ACHN renal
BT-549 breast = test system: BT-549 breast
CAKI-1 renal = test system: CAKI-1 renal
CCRF-CEM leukemia = test system: CCRF-CEM leukemia
COLO 205 colon = test system: COLO 205 colon
DU-145 prostate = test system: DU-145 prostate
EKVX NSCLC = test system: EKVX NSCLC
HCC-2998 colon = test system: HCC-2998 colon
HCT-116 colon = test system: HCT-116 colon
HCT-15 colon = test system: HCT-15 colon
HL-60(TB) leukemia = test system: HL-60(TB) leukemia
HOP-62 NSCLC = test system: HOP-62 NSCLC
HOP-92 NSCLC = test system: HOP-92 NSCLC
HS 578T breast = test system: HS 578T breast
HT29 colon = test system: HT29 colon
IGROV1 ovarian = test system: IGROV1 ovarian
K-562 leukemia = test system: K-562 leukemia
KM12 colon = test system: KM12 colon
LOX IMVI melanoma = test system: LOX IMVI melanoma
M14 melanoma = test system: M14 melanoma
MALME-3M melanoma = test system: MALME-3M melanoma
MCF7 breast = test system: MCF7 breast
MDA-MB-231 breast = test system: MDA-MB-231 breast
MDA-MB-435 = test system: MDA-MB-435
MDA-MB-468 breast = test system: MDA-MB-468 breast
MOLT-4 leukemia = test system: MOLT-4 leukemia
NCI-H226 lung = test system: NCI-H226 lung
NCI-H23 lung = test system: NCI-H23 lung
NCI-H460 lung = test system: NCI-H460 lung
NCI-H522 lung = test system: NCI-H522 lung
NCI/ADR-RES ovarian = test system: NCI/ADR-RES ovarian
OVCAR-3 ovarian = test system: OVCAR-3 ovarian
OVCAR-4 ovarian = test system: OVCAR-4 ovarian
OVCAR-5 ovarian = test system: OVCAR-5 ovarian
OVCAR-8 ovarian = test system: OVCAR-8 ovarian
PC-3 prostate = test system: PC-3 prostate
RPMI-8226 leukemia = test system: RPMI-8226 leukemia
RXF 393 renal = test system: RXF 393 renal
SF-268 CNS = test system: SF-268 CNS
SF-539 CNS = test system: SF-539 CNS
SK-MEL-2 melanoma = test system: SK-MEL-2 melanoma
SK-MEL-28 melanoma = test system: SK-MEL-28 melanoma
SK-MEL-5 melanoma = test system: SK-MEL-5 melanoma
SK-OV-3 ovarian = test system: SK-OV-3 ovarian
SN12C renal = test system: SN12C renal
SNB-19 CNS = test system: SNB-19 CNS
SNB-75 CNS = test system: SNB-75 CNS
SR leukemia = test system: SR leukemia
SW-620 colon = test system: SW-620 colon
T-47D breast = test system: T-47D breast
TK-10 renal = test system: TK-10 renal
U251 CNS = test system: U251 CNS
UACC-257 melanoma = test system: UACC-257 melanoma
UACC-62 melanoma = test system: UACC-62 melanoma
UO-31 renal = test system: UO-31 renal

`C/C(=N/O)c1ccc(NC(=O)CSc2nnc(-c3ccc(-c4nc5ccc(Cl)cc5[nH]4)cc3)o2)cc1` showed a GI50 (786-0 renal) of 1.91 µM, a TGI (786-0 renal) of 3.53 µM and a GI50 (A498 renal) of 1.94 µM. For the same molecule, the TGI (A498 renal) was 4.58 µM, the GI50 (A549 NSCLC) was 1.98 µM and the TGI (A549 NSCLC) was 4.2 µM. It also gave a GI50 (ACHN renal) of 2.7 µM, a TGI (ACHN renal) of 8.65 µM and a GI50 (BT-549 breast) of 2.39 µM. It also gave a TGI (BT-549 breast) of 4.35 µM, a GI50 (CAKI-1 renal) of 1.85 µM and a TGI (CAKI-1 renal) of 3.73 µM. The GI50 (CCRF-CEM leukemia) was 2.33 µM, the TGI (CCRF-CEM leukemia) was 6.75 µM and the GI50 (COLO 205 colon) was 3.14 µM. It also gave a TGI (COLO 205 colon) of 12.2 µM, a GI50 (DU-145 prostate) of 2.09 µM and a TGI (DU-145 prostate) of 4.73 µM. The GI50 (EKVX NSCLC) was 3.05 µM, the TGI (EKVX NSCLC) was 13.2 µM and the GI50 (HCC-2998 colon) was 11.2 µM. The TGI (HCC-2998 colon) was greater than 100 µM, the GI50 (HCT-116 colon) was 2.29 µM and the TGI (HCT-116 colon) was 5.73 µM. It also gave a GI50 (HCT-15 colon) of 34.5 µM, a TGI (HCT-15 colon) greater than 100 µM and a GI50 (HL-60(TB) leukemia) of 3.63 µM. For the same molecule, the TGI (HL-60(TB) leukemia) was 17.4 µM, the GI50 (HOP-62 NSCLC) was 2.01 µM and the TGI (HOP-62 NSCLC) was 3.95 µM. It also gave a GI50 (HOP-92 NSCLC) of 1.83 µM, a TGI (HOP-92 NSCLC) of 3.86 µM and a GI50 (HS 578T breast) of 2.21 µM. It also gave a TGI (HS 578T breast) of 5.19 µM, a GI50 (HT29 colon) of 2.44 µM and a TGI (HT29 colon) of 6 µM. For the same molecule, the GI50 (IGROV1 ovarian) was 3.35 µM, the TGI (IGROV1 ovarian) was 12 µM and the GI50 (K-562 leukemia) was 2.63 µM. For the same molecule, the TGI (K-562 leukemia) was 10.6 µM, the GI50 (KM12 colon) was 2.66 µM and the TGI (KM12 colon) was 8.48 µM. For the same molecule, the GI50 (LOX IMVI melanoma) was 1.57 µM, the TGI (LOX IMVI melanoma) was 2.92 µM and the GI50 (M14 melanoma) was 1.76 µM. For the same molecule, the TGI (M14 melanoma) was 3.54 µM, the GI50 (MALME-3M melanoma) was 1.58 µM and the TGI (MALME-3M melanoma) was 2.95 µM. The GI50 (MCF7 breast) was 2.2 µM, the TGI (MCF7 breast) was 5.93 µM and the GI50 (MDA-MB-231 breast) was 1.83 µM. The TGI (MDA-MB-231 breast) was 3.52 µM, the GI50 (MDA-MB-435) was 1.65 µM and the TGI (MDA-MB-435) was 3.27 µM. It also gave a GI50 (MDA-MB-468 breast) of 1.81 µM, a TGI (MDA-MB-468 breast) of 4.09 µM and a GI50 (MOLT-4 leukemia) of 2.62 µM. For the same molecule, the TGI (MOLT-4 leukemia) was 12.4 µM, the GI50 (NCI-H226 lung) was 1.74 µM and the TGI (NCI-H226 lung) was 3.68 µM. For the same molecule, the GI50 (NCI-H23 lung) was 1.9 µM, the TGI (NCI-H23 lung) was 4.09 µM and the GI50 (NCI-H460 lung) was 1.61 µM. The TGI (NCI-H460 lung) was 3.25 µM, the GI50 (NCI-H522 lung) was 1.57 µM and the TGI (NCI-H522 lung) was 3.42 µM. The GI50 (NCI/ADR-RES ovarian) was 84.7 µM, the TGI (NCI/ADR-RES ovarian) was greater than 100 µM and the GI50 (OVCAR-3 ovarian) was 1.74 µM. For the same molecule, the TGI (OVCAR-3 ovarian) was 3.73 µM, the GI50 (OVCAR-4 ovarian) was 2.04 µM and the TGI (OVCAR-4 ovarian) was 4.58 µM. The GI50 (OVCAR-5 ovarian) was 3.33 µM, the TGI (OVCAR-5 ovarian) was 13.8 µM and the GI50 (OVCAR-8 ovarian) was 2.94 µM. It also gave a TGI (OVCAR-8 ovarian) of 9.98 µM, a GI50 (PC-3 prostate) of 2.21 µM and a TGI (PC-3 prostate) of 5.08 µM. For the same molecule, the GI50 (RPMI-8226 leukemia) was 3.16 µM, the TGI (RPMI-8226 leukemia) was 15 µM and the GI50 (RXF 393 renal) was 1.75 µM. It also gave a TGI (RXF 393 renal) of 3.31 µM, a GI50 (SF-268 CNS) of 1.83 µM and a TGI (SF-268 CNS) of 3.78 µM. For the same molecule, the GI50 (SF-539 CNS) was 1.71 µM, the TGI (SF-539 CNS) was 3.08 µM and the GI50 (SK-MEL-2 melanoma) was 1.78 µM. The TGI (SK-MEL-2 melanoma) was 3.68 µM, the GI50 (SK-MEL-28 melanoma) was 1.73 µM and the TGI (SK-MEL-28 melanoma) was 3.18 µM. For the same molecule, the GI50 (SK-MEL-5 melanoma) was 1.75 µM, the TGI (SK-MEL-5 melanoma) was 3.33 µM and the GI50 (SK-OV-3 ovarian) was 2.38 µM. It also gave a TGI (SK-OV-3 ovarian) of 5.33 µM, a GI50 (SN12C renal) of 1.87 µM and a TGI (SN12C renal) of 4.06 µM. For the same molecule, the GI50 (SNB-19 CNS) was 1.9 µM, the TGI (SNB-19 CNS) was 3.62 µM and the GI50 (SNB-75 CNS) was 1.57 µM. The TGI (SNB-75 CNS) was 3.41 µM, the GI50 (SR leukemia) was 2.84 µM and the TGI (SR leukemia) was 15.5 µM. The GI50 (SW-620 colon) was 2.84 µM, the TGI (SW-620 colon) was 8.54 µM and the GI50 (T-47D breast) was 2.05 µM. The TGI (T-47D breast) was 4.5 µM, the GI50 (TK-10 renal) was 5.78 µM and the TGI (TK-10 renal) was 17.4 µM. The GI50 (U251 CNS) was 1.83 µM, the TGI (U251 CNS) was 3.4 µM and the GI50 (UACC-257 melanoma) was 2.06 µM. It also gave a TGI (UACC-257 melanoma) of 4.5 µM, a GI50 (UACC-62 melanoma) of 1.78 µM and a TGI (UACC-62 melanoma) of 3.36 µM. The GI50 (UO-31 renal) was 37.2 µM and the TGI (UO-31 renal) was greater than 100 µM.
